According to US20040161839A1, “Method to alter sugar moieties” (priority 2003, published 2004):

T1: DesI (Streptomyces venezuelae, UniProt Q9ZGH0)
T1 sequence (Q9ZGH0 1-415): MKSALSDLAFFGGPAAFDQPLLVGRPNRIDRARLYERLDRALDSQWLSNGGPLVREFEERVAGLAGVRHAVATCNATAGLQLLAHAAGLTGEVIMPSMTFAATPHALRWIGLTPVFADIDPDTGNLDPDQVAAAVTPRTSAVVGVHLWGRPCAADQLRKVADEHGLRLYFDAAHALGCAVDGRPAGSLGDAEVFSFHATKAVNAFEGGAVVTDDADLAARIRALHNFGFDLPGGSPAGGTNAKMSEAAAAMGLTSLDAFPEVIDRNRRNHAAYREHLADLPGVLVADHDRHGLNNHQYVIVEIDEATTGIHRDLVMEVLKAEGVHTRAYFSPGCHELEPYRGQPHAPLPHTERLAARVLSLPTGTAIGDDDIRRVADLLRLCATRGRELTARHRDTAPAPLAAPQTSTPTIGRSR

B1: DesI (Streptomyces venezuelae) (protein)
chain: T1 sequence (Q9ZGH0 1-415)

Tests used:
[1] = molecular target: cytochrome P450 hydroxylase (PikC) (Streptomyces venezuelae, UniProt O87605); assay: Incubation with purified PikC in vitro (aglycone hydroxylation); format: biochemical
Chain of cytochrome P450 hydroxylase (PikC) (O87605 whole entry): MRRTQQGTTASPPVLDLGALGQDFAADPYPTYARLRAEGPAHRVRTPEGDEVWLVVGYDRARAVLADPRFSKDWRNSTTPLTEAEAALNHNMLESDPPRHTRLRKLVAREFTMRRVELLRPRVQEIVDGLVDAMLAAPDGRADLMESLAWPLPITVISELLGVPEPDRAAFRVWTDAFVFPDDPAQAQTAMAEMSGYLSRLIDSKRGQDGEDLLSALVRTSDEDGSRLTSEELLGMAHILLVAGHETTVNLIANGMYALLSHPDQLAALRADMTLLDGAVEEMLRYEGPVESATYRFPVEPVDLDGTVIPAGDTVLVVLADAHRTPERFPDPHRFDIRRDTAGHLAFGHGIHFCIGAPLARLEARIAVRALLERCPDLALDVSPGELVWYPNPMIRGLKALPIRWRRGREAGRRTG
Text: Another noteworthy, albeit unexpected result was the fact that the aglycone of the isolated macrolide 31 was 10-deoxymethynolide instead of methymycin and neomethymycin analogues that are hydroxylated. […] It is possible that the cytochrome P450 hydroxylase (PikC), which catalyzes the hydroxylation of 10-deoxymethynolide and narbonolide (Xue et al., 1998) is sensitive to structural variations on the appended sugar. […] A similar observation was also noted in the case where desosamine was replaced by quinovose (Example 4). It could be argued that the presence of a substituent (either hydroxyl or amino group) at C-4 in the sugar moiety is responsible, at least in part, for decreasing or preventing hydroxylation of the macrolide.

Streptococcus pyogenes = assay: Antibiotic activity, filter paper disc test on agar plates; format: cell-based; settings: for activity against Streptococcus pyogenes grown on Mueller-Hinton agar plates: purified compounds; for antibiotic activity against Streptococcus pyogenes (inhibition zone around disc): 20 μL of each sample (1.6 mM in MeOH) on filter paper discs, Mueller-Hinton agar plates, overnight at 37° C.
Description: The antibiotic activity of a compound of formula (13) and (14) against Streptococcus pyogenes was examined by separately applying 20 μL of each sample (1.6 mM in MeOH) to sterilized filter paper discs which were placed onto the surface of S. pyogenes grown on Mueller-Hinton agar plates (Mangahas, 1996).

DNA = settings: tight DNA binding, literature; cited from earlier work
DesI = molecular target: T1, DesI; assay: Incubation with purified DesI in the presence of L-glutamate, HPLC analysis; 4-aminotransferase kinetics; format: biochemical
Text: To verify the catalytic function of DesI, the desI gene was amplified by PCR and cloned into the pET-28b(+) expression vector (Novagen) with a His6-tag at the N-terminus. The produced DesI protein was purified to near homogeneity by a Ni-NTA column (Qiagen) followed by FPLC on a MonoQ column.

[2] = substrate: Cc1cn([C@H]2C[C@H](O)[C@@H](COP(=O)(O)OP(=O)(O)O[C@H]3O[C@H](C)C(=O)[C@H](O)[C@H]3O)O2)c(=O)[nH]c1=O; assay: as above; format: biochemical, Streptomyces venezuelae; settings: other: DesI as PLP-dependent 4-aminotransferase, sugar substrate 6

Row | Molecule | activity against Streptococcus pyogenes grown on Mueller-Hinton agar plates (Streptococcus pyogenes) | antibiotic activity against Streptococcus pyogenes (inhibition zone around disc) (Streptococcus pyogenes) | further results
1 | CCC1OC(=O)C(C)C(=O)C(C)C(OC2OC(C)C(NC(C)=O)C(O)C2O)C(C)CC(C)C(=O)C=CC1C (centres unmarked) [compound 32] | inactive | – | aglycone hydroxylation on incubation with purified PikC [1]: no aglycone hydroxylation was discernible
2 | calicheamicin [calicheamicin (26)] | – | – | Ka (DNA binding) (DNA): 10^6-10^8
3 | CCC1OC(=O)C(C)C(OC2OC(C)C(NC(C)=O)C(O)C2O)C(C)CC(C)C(=O)C=CC1C (centres unmarked) [compound 31] | inactive | – | aglycone hydroxylation on incubation with purified PikC [1]: no aglycone hydroxylation was discernible
4 | CC1CC(N(C)C)C(O[C@@H]2O[C@H](CO)[C@@H](O)[C@H](O)[C@H]2O)C(OC2C(C)CC(C)C(=O)C=CC(C)C(C(C)O)OC(=O)C2C)O1 (stereo partly drawn) [formula (14), C-2′β-glucosylated neomethymycin] | – | no such clearings were discernible | –
5 | C[C@@H]1C[C@H](N(C)C)[C@@H](O)[C@H](O[C@H]2[C@@H](C)C[C@@H](C)C(=O)/C=C/[C@@H](C)[C@@H]([C@@H](C)O)OC(=O)[C@@H]2C)O1 [formula (2), neomethymycin] | clearly visible inhibition zones | clearly visible inhibition zones | –
6 | CC[C@H]1OC(=O)[C@H](C)[C@@H](O[C@@H]2O[C@H](C)C[C@H](N(C)C)[C@H]2O)[C@@H](C)C[C@@H](C)C(=O)/C=C/[C@]1(C)O [formula (1), methymycin] | clearly visible inhibition zones | clearly visible inhibition zones | –
7 | Cc1cn(C2CC(O)C(COP(=O)(O)OP(=O)(O)OC3OC(C)C(O)C(=O)C3O)O2)c(=O)[nH]c1=O [TDP-3-keto-deoxy-D-glucose (7), TDP-3-keto-deoxy-D-glucose] | – | – | consumption of substrate / formation of new product by DesI (DesI): no consumption
8 | CCC1OC(=O)C(C)C(OC2OC(C)CC(N(C)C)C2O[C@@H]2O[C@H](CO)[C@@H](O)[C@H](O)[C@H]2O)C(C)CC(C)C(=O)C=CC1(C)O (stereo partly drawn) [formula (13), C-2′β-glucosylated methymycin] | – | no such clearings were discernible | –
9 | CC[C@H]1OC(=O)[C@H](C)C(=O)[C@H](C)[C@@H](O[C@@H]2O[C@H](C)C[C@H](N(C)C)[C@H]2O)[C@@H](C)C[C@@H](C)C(=O)/C=C/[C@]1(C)O [pikromycin] | clearly visible inhibition zones | – | –
10 | B1 | – | – | Km [2]: 130 ± 4 µM
